Laboratory results taken from paper PMC6009935 (Journal of Enzyme Inhibition and Medicinal Chemistry, 2017).
pKi: −log10 of the molar value.

What was measured:
[1] = target: T1, cannabinoid receptors (CBR) (Rattus norvegicus, UniProt P20272); experiment: biochemical; format: binding
T1 construct: a: performed in rat whole brain membrane homogenates; from tissue; host or cells: Wistar rat whole brain membrane homogenate
Method: (§1) Tris-HCl, EGTA, NaCl, MgCl2 x 6H2O, GDP, the GTP analogue GTPγS, were purchased from Sigma-Aldrich (Budapest, Hungary). Fatty acid free bovine serum albumin (BSA) was purchased from Serva (Heidelberg, Germany). Naloxone was kindly provided by the company Endo Laboratories DuPont de Nemours (Wilmington, DE, USA). HS665 was provided by Schmidhammer’s group (University of Innsbruck, Austria). […]
(§2) purchased from Tocris Bioscience (Bristol, UK).
(§3) DMSO. All compounds were stored in 1 mM stock solution at -20 °C. The radiolabelled GTP analogue, [35S]GTPγS (specific activity: 1000 Ci/mmol) were purchased from Hartmann Analytic (Braunschweig, Germany). [3H]DAMGO (specific activity: 38.8 Ci/mmol),12 [3H]IleDelt II (specific activity: 19,6 Ci/mmol), [3H]WIN55,212-2 (specific activity: 13,1 Ci/mmol) and [3H]HS665 (specific activity: 36.62 Ci/mmol),3 were radiolabeled by the Laboratory of Chemical Biology group in BRC (Szeged, Hungary).
(§4) For membrane homogenate preparations male and female Wistar rats (250-300 g body weight) and male guinea pigs (~700 g body weight, LAL/HA/BR strain) were used. Rats were housed in the local animal house of BRC (Szeged, Hungary), while guinea pigs were housed in LAB-ÁLL Bt.
(§5) (Budapest, Hungary). All the animals were kept in a temperature controlled room (21-24 °C) under a 12:12 light and dark cycle and were provided with water and food ad libitum. All housing and experiments were conducted in accordance with the European Communities Council Directives (2010/63/EU) and the Hungarian Act for the Protection of Animals in Research (XXVIII.tv. 32.§).
(§6) The total number of animals as well as their suffering was minimized.
(§7) Rat and guinea pig brain membrane homogenate preparation for binding assays Rats and guinea pigs were decapitated and their brains were quickly removed. The brains were prepared for membrane preparation as previously described,4 and partly used for binding experiments and partly were further prepared for the [35S]GTPγS binding experiments. Briefly the brains were homogenized, centrifuged in ice-cold 50 mM Tris-HCl (pH 7.4) buffer and incubated at 37 °C for 30 min in a shaking water-bath. After incubation the centrifugation was repeated as described above and the final pellet was suspended in 50 mM Tris-HCl pH 7.4 buffer containing 0.32 M sucrose, and stored at -80 °C. For the [35S]GTPγS binding experiments the final pellet of rat […]
(§8) brain membrane homogenate was suspended in ice-cold TEM (Tris-HCl, EGTA, MgCl2) and stored at -80 °C for further use.
(§9) Radioligand competition binding experiments
(§10) Aliquots of frozen rat brain membrane homogenates were centrifuged (18 000 rpm, 20 min, 4 °C) to remove sucrose and the pellets were suspended in 50 mM Tris-HCl buffer (pH 7.4). Membranes containing 0.4-0.8 mg/mL of protein were incubated in a final volume of 1 mL in the presence of unlabeled 5, 10 and 9 in increasing concentrations (10-11-10-5 M) in the presence of the appropriate radioligand in ~1 nM concentrations at certain temperature and amount of time depending on the radioligand ([3H]DAMGO and [3H]IleDelt II: 35 °C for 45 min; [3H]HS665: 30 °C, 45 min; [3H]WIN55,212-2: 30 °C for 60 min). Experiments performed with [3H]HS665 where incubated […]
(§11) more kappa receptors than the rat brain), while the rest of the radioligands were incubated together with rat whole brain membrane homogenates. Additionally, in experiments performed with […]
(§12) increasing concentrations (10-11-10-5 M) together with 50 mM Tris/HCl, 2.5 mM EGTA, 5 mM MgCl2 and 0.5 mg/mL fatty acid free BSA (pH 7.4). The level of non-specific binding was […]
(§13) binding was determined in the absence of unlabeled compounds. The reaction was terminated by rapid filtration under vacuum (Brandel M24R Cell Harvester), and washed three times with 5 mL ice-cold 50 mM Tris-HCl or 50 mM Tris/HCl, 2.5 mM EGTA, 5 mM MgCl2, 0.5 % BSA (pH 7.4) in case of [3H]WIN55,212-2. The filtration was accomplished through Whatman GF/C ([3H]DAMGO, [3H]IleDelt II and [3H]HS665) or GF/B ([3H]WIN55,212-2) glass fibers. In case of […]

[2] = test system: hypothalamic synaptosomes; experiment: In vitro hypothalamic perfusion test (neurotransmitter release); format: cell-based, rat; details: 10 µM
Method: was evaluated with the analysis of variance followed by Dunnett’s post-hoc comparisons using GraphPad Prism 6.03 software. Statistical significance was assumed at least for P<0.05.
In vitro hypothalamic perfusion test
Hypothalamic synaptosomes were obtained from 18 male adult Sprague-Dawley rats (290-340 g), as previously described.9
Then, the synaptosome suspension was incubated at 37°C, under O2/CO2 95%/5%, pH 7.35-7.45, in Krebs-Ringer buffer (mM: NaCl 125, KCl 3, MgSO4 1.2, CaCl2 1.2, Tris-HCl 10, glucose 10, ascorbic acid 1). After the incubation period, identical aliquots of synaptosome suspension (1.24 mg protein determined by bicinchoninic acid protein assay) were layered onto 0.8 μm Millipore filters, placed into 37°C water-jacketed superfusion chambers [18 different chambers for each experiment and perfused with Krebs-Ringer buffer (0.6 mL/min)], and perfusate was collected (2 min fractions) to detect released neurotransmitters by HPLC coupled to electrochemical detection. The analytical conditions for amine identification and quantification in the perfusate fractions were selected on the basis of previous experiments performed on hypothalamus homogenate.10
The experimental protocol includes three phases: 10 min perfusion with Krebs-Ringer buffer in […]
buffer (stimulus); 8 min perfusion with Krebs-Ringer buffer for return to basal condition (post-stimulus). Perfusate was collected starting from the 8th minute of pre-stimulus. Perfusate aliquots were stored at -80°C, then lyophilized and finally suspended in 1 mL HPLC grade water for neurotransmitter quantification. Neurotransmitter release was expressed as mean percentage release recovered in the stimulus and post-stimulus, compared with initial basal conditions (pre-stimulus

MOR = target: T2, MOR (Rattus norvegicus, UniProt P33535); experiment: Radioligand competition binding with [3H]DAMGO; details: for pKi: Cheng-Prusoff; for IC50: read-out: logIC50 ± S.E.M., [3H]DAMGO (MOR) (converted)
T2 construct: a: performed in rat whole brain membrane homogenates; from tissue; host or cells: Wistar rat whole brain membrane homogenate
Method: as §1, §2, §3, §4, §5, §6, §7, §8, §9, §10, §11, §12, §13

[3] = rat whole brain membrane homogenates, logarithm of IC50, negative sign printed
[4] = rat whole brain membrane homogenates

T2 sequence (P33535 whole entry): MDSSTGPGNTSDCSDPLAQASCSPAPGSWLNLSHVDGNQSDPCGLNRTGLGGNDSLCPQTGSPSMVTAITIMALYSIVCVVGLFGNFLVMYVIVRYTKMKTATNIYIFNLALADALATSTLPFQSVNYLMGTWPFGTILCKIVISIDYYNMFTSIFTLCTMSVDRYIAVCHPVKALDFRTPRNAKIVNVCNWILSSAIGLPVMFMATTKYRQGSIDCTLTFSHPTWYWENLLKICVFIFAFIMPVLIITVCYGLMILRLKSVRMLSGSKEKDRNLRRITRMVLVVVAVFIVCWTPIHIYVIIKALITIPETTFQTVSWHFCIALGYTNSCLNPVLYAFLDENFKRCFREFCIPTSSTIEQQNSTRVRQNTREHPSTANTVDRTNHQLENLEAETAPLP
T1 sequence (P20272 whole entry): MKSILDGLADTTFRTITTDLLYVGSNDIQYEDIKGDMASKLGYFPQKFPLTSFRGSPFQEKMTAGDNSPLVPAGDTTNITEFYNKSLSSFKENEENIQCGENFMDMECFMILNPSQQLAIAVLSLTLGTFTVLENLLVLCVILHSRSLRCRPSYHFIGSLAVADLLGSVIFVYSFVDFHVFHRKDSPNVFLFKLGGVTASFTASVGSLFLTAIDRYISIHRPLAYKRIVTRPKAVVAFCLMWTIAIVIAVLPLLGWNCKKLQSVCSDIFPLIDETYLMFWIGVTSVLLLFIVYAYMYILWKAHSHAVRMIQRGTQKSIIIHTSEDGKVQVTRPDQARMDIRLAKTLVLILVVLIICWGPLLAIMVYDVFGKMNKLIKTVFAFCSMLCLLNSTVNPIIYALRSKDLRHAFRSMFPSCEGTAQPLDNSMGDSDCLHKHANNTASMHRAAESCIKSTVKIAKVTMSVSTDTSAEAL

SMILES | logIC50 ± S.E.M., [3H]WIN55,212 (CBR) [1, 3] | effect on dopamine (DA) release [2] | MOR binding affinity in words (MOR) | logIC50 ± S.E.M., [3H]DAMGO (MOR) (MOR; [3]) | CBR / CB1R binding affinity in words [1] | effect on norepinephrine (NE) release [2] | effect on serotonin (5-HT) release [2] | pKi (MOR; [4]) | IC50 (MOR; [3]) | pKi ([1]; rat whole brain membrane homogenates, Cheng-Prusoff, read-out: Ki, [3H]WIN55,212 (CBR)) | IC50 ([1]; rat whole brain membrane homogenates, logarithm of IC50, negative sign printed, read-out: logIC50 ± S.E.M., [3H]WIN55,212 (CBR) (converted)) | Selectivity ratio DOR/MOR (MOR; ratio of Ki values) | Selectivity ratio KOR/MOR (MOR; ratio of Ki values)
Cc1c(C(=O)NC2CCNCC2)nn(-c2ccc(Cl)cc2Cl)c1-n1cccc1 [Compound 5] | ambiguous | decreased | did not bind | ambiguous | – | – | – | – | – | – | – | – | –
C[C@@H](NC(=O)[C@@H](N)Cc1ccc(O)cc1)C(=O)NCC(=O)N[C@@H](Cc1ccccc1)C(N)=O [Compound 10, Tyr-D-Ala-Gly-Phe-NH2, reference compound] | ambiguous | inhibitory effect | high affinity | – | did not show any affinity | significant stimulatory effect | inhibitory effect | 9.00 | 0.00617 µM | – | – | – | –
Cc1c(C(=O)NC2CCN(C(=O)[C@H](Cc3ccccc3)NC(=O)CNC(=O)[C@@H](C)NC(=O)[C@@H](N)Cc3ccc(O)cc3)CC2)nn(-c2ccc(Cl)cc2Cl)c1-n1cccc1 [Compound 9] | – | reduced inhibitory effect | loss in affinity | – | modest affinity | significant stimulatory effect | no significant effects | 7.46 | 0.204 µM | 5.28 | 6.03 µM | 12.88 | 4.93
